From US12378245B2, “Crystalline forms of an RSK inhibitor” (PHOENIX MOLECULAR DESIGNS, priority 2019, dated 2025)

How the values were obtained:
Type in all cases: physicochemical
[1] = Dynamic Vapor Sorption (DVS); conditions: for form by post-DVS XRPD analysis: after exposure to DVS humidity conditions
Description: Approximately, 10-20 mg of sample was placed into a mesh vapour sorption balance pan and loaded into a DVS Intrinsic dynamic vapour sorption balance by Surface Measurement Systems. The sample was subjected to a ramping profile from 40-90% relative humidity (RH) at 10% increments, maintaining the sample at each step until a stable weight had been achieved (dm/dt 0.004%, minimum step length 30 minutes, maximum step length 500 minutes) at 25° C. After completion of the sorption cycle, the sample was dried using the same procedure to 0% RH and then a second sorption cycle back to 40% RH. Two cycles were performed. The weight change during the sorption/desorption cycles were plotted, allowing for the hygroscopic nature of the sample to be determined. XRPD analysis was then carried out on any solid retained.

[2] = Stability Studies - One Week Study; conditions: 40° C./75% RH or 80° C./under ambient light for 1 week
Description: About 15 mg of Compound 1, Forms 1 and 2 were separately placed at either 40° C./75% RH or 80° C./under ambient light for 1 week. The resulting solids were analysed by XRPD and HPLC purity. No changes in Form 1 or Form 2 were observed under these conditions after 1 week.

[3] = Stability Studies - Eight Week Study; conditions: 40° C./75% RH (uncapped), 80° C. (capped), ambient light and temperature (approx. 22° C.)
Description: About 5 mg of Compound 1, Form 1 was weighed into twenty-four, 1.5 mL glass vials. Each vial was placed at either 40° C./75% RH (uncapped vial), 80° C. (capped vial) and under ambient light and temperature (approx. 22° C., capped vial) for a total of 8 weeks. […] was removed from each condition for XRPD, ^1H NMR and HPLC purity analysis at 1 week, 2 weeks, 4 weeks and 8 weeks.

Structure (SMILES)	form by post-DVS XRPD analysis ([1]; listed as Form 2 of Compound 1, hydrochloride)	change in mass / mass uptake by DVS ([1]; at 90% RH, 25° C., listed as Form 2 of Compound 1, hydrochloride) [%]	changes by XRPD and HPLC purity [2]	change in purity by HPLC ([3]; 8 weeks)	change by XRPD and NMR analysis ([3]; after 8 weeks)	form by post-DVS XRPD analysis ([1]; listed as Form 1 of Compound 1, hydrochloride)	water uptake by DVS ([1]; at 90% RH, 25° C.)	change in mass / mass uptake by DVS ([1]; at 90% RH, 25° C., listed as Form 1 of Compound 1, hydrochloride)	hygroscopic nature by DVS ([1]; ramping 40-90% RH, 25° C., two cycles)
C[C@@H]1CNC(=O)c2cc3ccc(C(=O)Nc4cnn(Cc5ccc(N)cc5)c4)nc3n21.Cl [Compound 1, Form 2, (R)—N-(1-(4-aminobenzyl)-1H-pyrazol-4-yl)-9-methyl-6-oxo-6,7,8,9-tetrahydropyrido[3′,2′:4,5]pyrrolo[1,2-a]pyrazine-2-carboxamide hydrochloride]	no change in form	1.8							
C[C@@H]1CNC(=O)c2cc3ccc(C(=O)Nc4cnn(Cc5ccc(N)cc5)c4)nc3n21.Cl [Compound 1, Form 1, (R)—N-(1-(4-aminobenzyl)-1H-pyrazol-4-yl)-9-methyl-6-oxo-6,7,8,9-tetrahydropyrido[3′,2′:4,5]pyrrolo[1,2-a]pyrazine-2-carboxamide hydrochloride]			No changes	no significant change	no change	remained as Form 1	0.2 equiv. of water	+0.8%	slightly hygroscopic
